The term Ki denotes the equilibrium dissociation constant of an inhibitor or competing ligand from its target.

A value given as a limit tells only on which side of the number the result lay.

The results in this text go back to patent US7851637B2, “Compounds and methods for inhibiting the interaction of BCL proteins with binding partners” (Infinity Pharmaceuticals, Inc., priority 2004, dated 2010).

The target of assay [1] is Bcl-2 (Homo sapiens, UniProt P10415). The experiment in a line: Bcl-2 binding affinity analysis (fluorescence polarization binding assay). The text has this:
(§1) Bcl-2 and Bcl-xL binding can be determined using a variety of known methods. One such assay is a sensitive and quantitative in vitro binding assay using fluorescence polarization (FP) described by Wang, J. -L.; Zhang, Z -J.; Choksi, S.; Sjam. S.; Lu, Z.; Croce, C. M.; Alnenri, E. S.; Komgold, R.; Huang, Z. Cell permeable Bcl-2 binding peptides: a chemical approach to apoptosis induction in tumor cells. Cancer Res. 2000, 60, 1498-1502).
(§2) Bcl-2 and Bcl-xL binding affinity analysis data is presented below for various compounds of the invention.

For assay [2], the target named is Bcl-xL (Homo sapiens, UniProt Q07817). Kind of assay: Bcl-xL binding affinity analysis (fluorescence polarization binding assay). Also noted: scale not given here.
Sequence of Bcl-xL (Q07817 whole entry): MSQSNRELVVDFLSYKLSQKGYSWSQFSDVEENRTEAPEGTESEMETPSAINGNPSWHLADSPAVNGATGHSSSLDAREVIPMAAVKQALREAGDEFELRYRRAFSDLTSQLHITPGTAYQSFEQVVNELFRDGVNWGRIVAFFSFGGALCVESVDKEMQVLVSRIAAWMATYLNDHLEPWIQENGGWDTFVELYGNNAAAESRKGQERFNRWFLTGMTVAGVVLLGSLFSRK
Text: as §1, §2

Sequence of Bcl-2 (P10415 whole entry): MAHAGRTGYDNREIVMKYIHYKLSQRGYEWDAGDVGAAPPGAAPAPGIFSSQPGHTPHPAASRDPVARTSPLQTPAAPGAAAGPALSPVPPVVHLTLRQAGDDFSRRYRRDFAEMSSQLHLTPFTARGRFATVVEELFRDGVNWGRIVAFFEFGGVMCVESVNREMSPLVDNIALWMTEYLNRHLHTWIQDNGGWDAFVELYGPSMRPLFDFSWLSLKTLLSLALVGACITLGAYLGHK

The molecule `COCCOCCOc1cccc(CN(CCN(C)C)Cc2cccc(CN3OC(CO)C(C(C)O)C3C(=O)NC3CC4CC(C3C)C4(C)C)c2)c1` (stereo not shown) [Compound 407] displayed a Ki in assay [1] of less than 0.8 µM. The “Bcl-XL binding affinity Ki” value in assay [2] was “♯”.
For `CC(C)CC(CN(C)C)N(Cc1cccc(CN2OC(CO)C(C(C)O)C2C(=O)NC2CC3CC(C2C)C3(C)C)c1)Cc1ccc(F)cc1O` (stereo not shown) [Compound 329], in that order: less than 0.8 µM and “♯”.
The matching figures for `CC(C)CNC(=O)c1cccc(-c2cccc(CN3O[C@@H](CO)[C@@H]([C@H](C)O)[C@H]3C(=O)N[C@H]3C[C@H]4C[C@@H]([C@@H]3C)C4(C)C)c2)c1` [Compound 151]: less than 0.8 µM and “♯♯”.
For `CC(C)CC(CN(C)C)N(Cc1cccc(CN2OC(CO)C(C(C)O)C2C(=O)NC2CC3CC(C2C)C3(C)C)c1)Cc1ccccc1N1CCOCC1` (stereo not shown) [Compound 331], in that order: less than 0.8 µM and “♯”.
On to `CC(O)C1C(CO)ON(Cc2cccc(CN(CCN(C)C)CC3CC=CCC3)c2)C1C(=O)NC1CC2CC(C1C)C2(C)C` (stereo not shown) [Compound 350], for which the Ki in assay [1] is less than 0.8 µM. The “Bcl-XL binding affinity Ki” value in assay [2] is recorded as “♯”.
For `C[C@@H]1[C@@H](NC(=O)[C@@H]2C([C@H](C)O)[C@H](CO)ON2Cc2ccc(C#CC3(N)CCCCC3)cc2)C[C@H]2C[C@@H]1C2(C)C` (stereo partly shown) [Compound 30], in that order: 0.8 to 6 µM and “♯♯”.
`C[C@@H](O)[C@H]1[C@@H](CO)ON(Cc2cccc(C#CCNS(=O)(=O)c3ccc(Oc4ccccc4)cc3)c2)[C@H]1C(=O)NCCCN(C)c1ccccc1` [Compound 72]: in assay [1], the Ki lay within 6 to 50 µM.
The molecule `COCCOc1cccc(CN(CCN(C)C)Cc2cccc(CN3OC(CO)C(C(C)O)C3C(=O)NC3CC4CC(C3C)C4(C)C)c2)c1` (stereo not shown) [Compound 406] had a Ki in assay [1] of less than 0.8 µM. Moreover, the “Bcl-XL binding affinity Ki” value in assay [2] was “♯”.
In assay [1], `C[C@@H](O)[C@H]1[C@@H](CO)ON(Cc2cccc(C#CCNC(=O)c3ccccc3)c2)[C@H]1C(=O)NCc1ccc(-c2ccccc2)cc1` [Compound 60] showed a Ki of more than 50 µM. Further, the “Bcl-XL binding affinity Ki” value in assay [2] is recorded as “♯♯”.
For `CC(C)CC(CN(C)C)N(Cc1cccc(CN2OC(CO)C(C(C)O)C2C(=O)NC2CC3CC(C2C)C3(C)C)c1)CC1CCCC1` (stereo not shown) [Compound 308], in that order: less than 0.8 µM and “♯”.
In assay [1], `C[C@@H]1[C@@H](NC(=O)[C@@H]2[C@H]([C@H](C)O)[C@H](CO)ON2Cc2cccc(-c3ccc4c(c3)C(=O)N(C)C4=O)c2)C[C@H]2C[C@@H]1C2(C)C` [Compound 128] displayed a Ki of less than 0.8 µM. Further, the “Bcl-XL binding affinity Ki” value in assay [2] is listed as “♯”.
As for `C[C@@H](O)[C@H]1[C@@H](CO)ON(Cc2cccc(C#CCNCc3ccc(-c4ccccc4)cc3)c2)[C@H]1C(=O)NCCCN(C)c1ccccc1` [Compound 71], the Ki in assay [1] was in the range of 6 to 50 µM.
In turn, `C[C@@H](O)[C@H]1[C@@H](CO)ON(Cc2cccc(C#CC(C)(O)c3ccccc3)c2)[C@H]1C(=O)NCCCN(C)c1ccccc1` (stereo partly shown) [Compound 49] returned a Ki in assay [1] of 0.8 to 6 µM. For the same molecule, the “Bcl-XL binding affinity Ki” value in assay [2] is listed as “♯”.
For `C[C@@H]1[C@@H](NC(=O)[C@@H]2[C@H]([C@H](C)O)[C@H](CO)ON2Cc2cccc(-c3cccc(C(=O)NCCCN(C)C)c3)c2)C[C@H]2C[C@@H]1C2(C)C` [Compound 216], in that order: less than 0.8 µM and “♯”.
For `CC(=O)Nc1ccc(-c2cccc(CN3O[C@@H](CO)[C@@H]([C@H](C)O)[C@H]3C(=O)NC3C[C@H]4C[C@@H]([C@@H]3C)C4(C)C)c2)cc1` (stereo partly shown) [Compound 294], in that order: less than 0.8 µM and “♯”.
For `C[C@@H](O)[C@H]1[C@@H](CO)ON(Cc2cccc(C#CCN(C)Cc3ccccc3)c2)[C@H]1C(=O)NCCCN(C)c1ccccc1` [Compound 51], in that order: 0.8 to 6 µM and “♯”.
`CC(O)C1[C@H](CO)ON(Cc2cccc(C#Cc3ccccn3)c2)[C@@H]1C(=O)N[C@H]1C[C@H]2CC([C@@H]1C)C2(C)C` (stereo partly shown) [Compound 32] yielded an inhibitory constant (Ki) in assay [1] of 0.8 to 6 µM. Moreover, the “Bcl-XL binding affinity Ki” value in assay [2] is given as “♯”.
The matching figures for `C[C@H](O)[C@@H]1[C@H](CO)ON(Cc2cccc(CN(CCN(C)C)Cc3ccccc3)c2)[C@@H]1C(=O)NCc1ccc(-c2ccccc2)cc1` [Compound 526]: less than 0.8 µM and “♯”.
For `C[C@@H]1C(NC(=O)[C@@H]2[C@H]([C@H](C)O)[C@H](CO)ON2Cc2cccc(-c3ccc(NCCN(C)C)cc3)c2)C[C@@H]2CC1C2(C)C` (stereo partly shown) [Compound 276], in that order: less than 0.8 µM and “♯”.
The matching figures for `C[C@@H]1[C@@H](NC(=O)[C@@H]2[C@H]([C@H](C)O)[C@H](CO)ON2Cc2cccc(N3CCN(C(=S)NCCN4CCOCC4)CC3)c2)C[C@H]2C[C@@H]1C2(C)C` [Compound 264]: less than 0.8 µM and “♯”.
As for `C[C@H](O)[C@@H]1[C@H](CO)ON(Cc2cccc(CN(CCN(C)C)Cc3ccccc3)c2)[C@@H]1C(=O)NC1CCN(C(=O)OC(C)(C)C)CC1` [Compound 528], the inhibition constant Ki in assay [1] was 6 to 50 µM. In assay [2], the “Bcl-XL binding affinity Ki” value is “♯”.
For `C[C@@H]1[C@@H](NC(=O)[C@@H]2[C@H]([C@H](C)O)[C@H](CO)ON2Cc2cccc(-c3ccc(S(C)(=O)=O)cc3)c2)C[C@H]2C[C@@H]1C2(C)C` [Compound 115], in that order: less than 0.8 µM and “♯”.
`COc1ccc(O)c(CN(Cc2cccc(CN3OC(CO)C(C(C)O)C3C(=O)NC3CC4CC(C3C)C4(C)C)c2)C(CC(C)C)CN(C)C)c1` (stereo not shown) [Compound 332] displayed a Ki in assay [1] of less than 0.8 µM. For the same molecule, in assay [2], the “Bcl-XL binding affinity Ki” value is “♯”.
For `C[C@@H]1[C@@H](NC(=O)[C@@H]2[C@H]([C@H](C)O)[C@H](CO)ON2Cc2cccc(-c3cccc(C(=O)NCCCO)c3)c2)C[C@H]2C[C@@H]1C2(C)C` [Compound 121], in that order: less than 0.8 µM and “♯♯”.
The matching figures for `CSc1cccc(-c2cccc(CN3O[C@@H](CO)[C@@H]([C@H](C)O)[C@H]3C(=O)N[C@H]3C[C@H]4C[C@@H]([C@@H]3C)C4(C)C)c2)c1` [Compound 201]: less than 0.8 µM and “♯”.
The matching figures for `CC(O)C1C(CO)ON(Cc2cccc(CN(CCN(C)C)c3ccccc3)c2)C1C(=O)NC1CC2CC(C1C)C2(C)C` (stereo not shown) [Compound 476]: less than 0.8 µM and “♯”.
In assay [1], `CC(C)[C@@H](CN(C)C)NC(=O)c1cccc(-c2cccc(CN3O[C@@H](CO)[C@@H]([C@H](C)O)[C@H]3C(=O)N[C@H]3C[C@H]4C[C@@H]([C@@H]3C)C4(C)C)c2)c1` [Compound 100] gave an inhibition constant Ki of less than 0.8 µM. Also, the “Bcl-XL binding affinity Ki” value in assay [2] is recorded as “♯”.
For `CC(O)[C@H]1[C@@H](CO)ON(Cc2cccc(C#CC(C)(C)c3ccccc3)c2)[C@H]1C(=O)NCCCN(C)c1ccccc1` (stereo partly shown) [Compound 31], in that order: 0.8 to 6 µM and “♯”.
The matching figures for `C[C@H](O)[C@@H]1[C@H](CO)ON(Cc2ccc(C#CCN(C)Cc3ccccc3)cc2)[C@@H]1C(=O)NCCC1=CCCCC1` [Compound 38]: more than 50 µM and “♯♯”.
As to `C[C@@H]1[C@@H](NC(=O)[C@@H]2[C@H]([C@H](C)O)[C@H](CO)ON2Cc2cccc(-c3cccc(C(=O)N4CC[C@@H](N(C)C)C4)c3)c2)C[C@H]2C[C@@H]1C2(C)C` [Compound 152], the Ki in assay [1] was less than 0.8 µM. Also, in assay [2], the “Bcl-XL binding affinity Ki” value was “♯♯”.
In assay [1], `C[C@H](O)[C@@H]1[C@H](CO)ON(Cc2cccc(CN(CCN(C)C)Cc3ccccc3)c2)[C@@H]1C(=O)NCCc1c[nH]c2ccccc12` [Compound 516] had an inhibitory constant (Ki) of 6 to 50 µM. Besides, the “Bcl-XL binding affinity Ki” value in assay [2] is on record as “♯”.
For `C[C@@H]1[C@@H](NC(=O)[C@@H]2[C@H]([C@H](C)O)[C@H](CO)ON2Cc2cccc(C#CCNS(=O)(=O)c3ccccc3)c2)C[C@H]2C[C@@H]1C2(C)C` [Compound 76], in assay [1], the Ki was in the range of 0.8 to 6 µM.
Same read-out and setting: then `C[C@@H]1[C@@H](NC(=O)[C@@H]2[C@H]([C@H](C)O)[C@H](CO)ON2Cc2cccc(C#CCNCc3ccccn3)c2)C[C@H]2C[C@@H]1C2(C)C` [Compound 66], with 0.8 to 6 µM.
The same measure, in the same setting: then `C[C@@H]1[C@@H](NC(=O)[C@@H]2[C@H]([C@H](C)O)[C@H](CO)ON2Cc2cccc(C#CCNC(=O)NCc3ccccc3)c2)C[C@H]2C[C@@H]1C2(C)C` [Compound 78], with 0.8 to 6 µM; and `C[C@@H](O)[C@H]1[C@@H](CO)ON(Cc2cccc(C#CCNC(=O)NC3CC3c3ccccc3)c2)[C@H]1C(=O)NCCCN(C)c1ccccc1` (stereo partly shown) [Compound 80], with 0.8 to 6 µM; and `C[C@@H](O)[C@H]1[C@@H](CO)ON(Cc2cccc(C#CCNC(=O)NCc3ccccc3)c2)[C@H]1C(=O)NCCCN(C)c1ccccc1` [Compound 77], with 0.8 to 6 µM.
The same measure, in the same setting: the result for `C[C@@H]1[C@@H](NC(=O)[C@@H]2[C@H]([C@H](C)O)[C@H](CO)ON2Cc2cccc(C#CCNCc3c[nH]c4ccccc34)c2)C[C@H]2C[C@@H]1C2(C)C` [Compound 68] reads 0.8 to 6 µM; that for `C[C@@H](O)[C@H]1[C@@H](CO)ON(Cc2cccc(C#CCNS(=O)(=O)c3cccc4cccnc34)c2)[C@H]1C(=O)NCCCN(C)c1ccccc1` [Compound 75], 0.8 to 6 µM.
Molecule `C[C@@H]1[C@@H](NC(=O)[C@@H]2[C@H]([C@H](C)O)[C@H](CO)ON2Cc2cccc(C#CCNS(=O)(=O)Cc3ccccc3)c2)C[C@H]2C[C@@H]1C2(C)C` [Compound 74] registered a Ki in assay [1] of 0.8 to 6 µM.
On the same count and under the same terms, then `C[C@@H](O)[C@H]1[C@@H](CO)ON(Cc2cccc(C#CCNC(=O)Nc3ccccc3)c2)[C@H]1C(=O)NCCCN(C)c1ccccc1` [Compound 79], with 0.8 to 6 µM; and `C[C@@H]1[C@@H](NC(=O)C2[C@H]([C@H](C)O)[C@H](CO)ON2Cc2cccc(C#CCNS(=O)(=O)c3ccc(-c4ccccc4)cc3)c2)C[C@H]2C[C@@H]1C2(C)C` (stereo partly shown) [Compound 73], with 0.8 to 6 µM.
